# Assays:
# [1] = biological target: Recombinant human glycogen synthase kinase 3 beta (Homo sapiens, UniProt P49841); assay: GSK-3 beta inhibition assay; assay type: biochemical; conditions: percentage of enzyme activity; for remaining activity at 25 µM / remaining activity at 50 µM: 0.5 h
# Method: GSK-3 beta Inhibition Assay
# The GSK-3 beta activity of the compounds of formula (I) according to the present invention was determined by incubation of a mixture of recombinant human GSK-3 enzyme, a phosphate source and GSK-3 substrate in the presence and in the absence of the corresponding test compound, and by measuring the GSK-3 activity of this mixture. The compounds where tested at final concentrations of 25 and 50 μM.
# Recombinant human glycogen synthase kinase 3 beta was assayed in MOPS 11 mM, pH 7.4, EDTA 0.2 mM, EGTA 1.25 mM, MgCl2 26.25 mM and sodium orthovanadate 0.25 mM in the presence of 62.5 μM of Phospho-Glycogen Synthase Peptide-2 (GS-2), 0.5 μCi gamma-^33P-ATP and unlabelled ATP at a final concentration of 12.5 μM. The final assay volume was 20 μl. After incubation for 30 minutes at 30° C., 15 μl aliquots were spotted onto P81 phosphocellulose papers. Filters were washed four times for at least 10 minutes each and counted with 1.5 ml of scintillation cocktail in a scintillation counter.
# (§1) The compounds of formula (I) of the present invention where submitted to the above indicated assays, in order to determine both their GSK-3 inhibition activity and BACE activity inhibition. The results are indicated in Table I and Table II, in percentage of the respective enzyme activity.
# [2] = biological target: T1, rhBACE-1 β-Secretase recombinant human (Homo sapiens, UniProt P56817); assay: BACE assay (FRET); assay type: biochemical; conditions: percentage of enzyme activity
# T1 construct: purchased R&D Systems 931-AS
# Source text: The aim of this assay is to determine if a compound, either synthetic or of marine origin, is a BACE-1 inhibitor, to avoid the formation of Aβ. This assay is based on FRET technology (Fluorescence Resonance Energy Transfer). FRET is used to measure cleavage of a peptide substrate, among other uses. […] When a substrate peptide cleavage occurs, the energy balance is broken and all the donor fluorescence can be observed. The increase in fluorescence is linearly related to the rate of proteolysis (Gordon, G W et al., 1998). In this assay the reaction occurs between an enzyme, purified BACE-1, and a fluorogenic peptidic substrate who present the “Swedish mutation”. The peptide cleavage by BACE-1 produces fluorescence energy and enzymatic activity can be quantified.
# The reagents which are used in this assay are the following: • rhBACE-1 β-Secretase recombinant human (R&D Systems. Ref. 931-AS). • Fluorogenic Peptide Substrate IV (R&D Systems. Ref. ES004). • Beta-SECRETASE INHIBITOR H-4848. (BACHEM. Ref. H-4848.0001). • Sodium acetate.
# The assay is carried out in a 96 wells microplate. The final concentration of substrate is 3.5 μM per well, and the enzyme concentration is 0.5 μg/ml. The final volume of the assay is 100 μl per well and all reagents are diluted in Reaction Buffer. The compounds are tested at a concentration of 10^−5 and 10^−6 M. The control in the assay is the commercial inhibitor β-Secretase inhibitor H-4848 from BACHEM, which is tested at 300 nM. All the samples and controls are studied by duplicate.
# The plate is mixed gently and changes in the fluorescence are measured using a fluorimeter plate reader, with 320 nm excitation filter and 405 nm emission filter. The temperature should be preferably maintained between 25 and 30° C. Measurements are carried out every ten minutes during an hour. The first measure is subtracted from the last to calculate the fluorescence increase, evaluating the enzymatic activity. The 100% activity is calculated as the mean of the results of wells without sample or inhibitor.
# In the cases where abnormal effects in fluorescence were detected, BACE inhibition activity was assayed using BACE-1 (beta-Secretase) FRET ASSAY KIT (Invitrogen, Ref. P2985). Fluorescence was measured with a fluorimeter plate reader, with 544 nm excitation filter and 580 nm emission filter.
# as §1
# Recombinant human glycogen synthase kinase 3 beta, sequence (P49841 whole entry): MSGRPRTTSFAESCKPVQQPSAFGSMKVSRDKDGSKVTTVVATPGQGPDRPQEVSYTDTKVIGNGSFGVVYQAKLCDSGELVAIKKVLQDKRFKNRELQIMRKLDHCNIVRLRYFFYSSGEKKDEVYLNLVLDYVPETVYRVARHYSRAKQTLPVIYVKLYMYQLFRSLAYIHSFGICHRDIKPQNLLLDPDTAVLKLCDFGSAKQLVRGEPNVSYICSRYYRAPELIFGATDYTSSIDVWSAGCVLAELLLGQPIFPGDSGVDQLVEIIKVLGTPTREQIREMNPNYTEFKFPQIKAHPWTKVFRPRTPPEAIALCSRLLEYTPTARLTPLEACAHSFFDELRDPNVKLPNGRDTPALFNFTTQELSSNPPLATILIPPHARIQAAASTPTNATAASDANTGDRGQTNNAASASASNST
# T1 sequence (P56817 46-457 limits assumed): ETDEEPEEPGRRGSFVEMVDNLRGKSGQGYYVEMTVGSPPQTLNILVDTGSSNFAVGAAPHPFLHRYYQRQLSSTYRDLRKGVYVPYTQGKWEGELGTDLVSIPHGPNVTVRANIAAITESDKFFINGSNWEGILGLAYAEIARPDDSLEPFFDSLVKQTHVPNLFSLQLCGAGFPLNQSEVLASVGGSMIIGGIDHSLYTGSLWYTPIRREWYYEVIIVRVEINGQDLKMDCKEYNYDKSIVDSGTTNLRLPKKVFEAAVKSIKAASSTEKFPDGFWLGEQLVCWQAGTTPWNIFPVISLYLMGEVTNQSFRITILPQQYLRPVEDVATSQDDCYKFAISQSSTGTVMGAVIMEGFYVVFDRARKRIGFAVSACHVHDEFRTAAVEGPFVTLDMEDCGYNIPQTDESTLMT
remaining activity at 25 µM ([1]; compound at 25 μM) [%],remaining activity at 50 µM ([1]; compound at 50 μM) [%],% of BACE activity ([2]; compound at 1 μM) [%],% of BACE activity ([2]; compound at 10 μM) [%],% GSK-3 beta activity ([1]; compound at 25 μM) [%],% GSK-3 beta activity ([1]; compound at 50 μM) [%],Compound
79.6,8.26,–,–,–,–,CCCOc1ccc(C(=O)OC)cc1N(C/C=C(\C)CC/C=C(\C)CCC=C(C)C)CCC [Compound 44]
24.6,1.71,50 ± 4,6.5 ± 1,–,–,"COC(=O)c1ccc(OC)c(N(CC=C(C)CCC=C(C)COC2CCCCO2)CC=C(C)CCC=C(C)COC2CCCCO2)c1 (stereo not shown) [Compound 37, 3-{Bis-[3,7-dimethyl-8-(tetrahydro-pyran-2-yloxy)-octa-2,6-dienyl]-amino}-4-methoxy-benzoic acid methyl ester]"
–,–,48 ± 6,33 ± 7,17.31,0.17,COC(=O)c1ccc(OC)c(N(C/C=C(\C)CCC=C(C)C)C/C=C(\C)CCC=C(C)C)c1 [Compound 30]
70.2,52.8,50 ± 9,0,–,–,COc1ccc(C(=O)O)cc1NC/C=C(\C)CC/C=C(\C)CCC=C(C)C [Compound 5]
71.3,40.4,2.5 ± 3.5,0 ± 0,–,–,COC(=O)c1ccc(O)c(N(C/C=C(\C)CCC=C(C)C)C/C=C(\C)CCC=C(C)C)c1 [Compound 29]
88.9,98.4,73 ± 2,75 ± 9,–,–,COc1ccc(C(=O)NC(=N)n2cccn2)cc1N(C/C=C(\C)CCC=C(C)C)C/C=C(\C)CCC=C(C)C [Compound 41]
23.6,2.51,81.5 ± 9,35 ± 10,–,–,"COc1ccc(C(=O)N2CCN(CC=Cc3ccccc3)CC2)cc1N(CC=C(C)CCC=C(C)C)CC=C(C)CCC=C(C)C [Compound 38, {3-[Bis-(3,7-dimethyl-octa-2,6-dienyl)-amino]-4-methoxy-phenyl}-[4-(3-phenyl-allyl)-piperazin-1-yl]-methanone]"
–,–,43 ± 15,0,73.2,42.14,COC(=O)c1ccc(OC)c(N(C/C=C(\C)CCC=C(C)C)C/C=C(\C)CCC=C(C)C)c1 [Compound 17]
108,17.4,89.5 ± 18,4.5 ± 6,–,–,COC(=O)c1ccc(OC(C)=O)c(N(C/C=C(\C)CCC=C(C)C)C/C=C(\C)CCC=C(C)C)c1 [Compound 31]
56.6,5.35,100,100,–,–,COC(=O)c1ccc(OC)c(N(C/C=C(\C)CC/C=C(\C)CCC=C(C)C)C/C=C(\C)CC/C=C(\C)CCC=C(C)C)c1 [Compound 18]
37.4,21.6,41 ± 12,0,–,–,CC(C)=CCC/C(C)=C/CC/C(C)=C/CN(C/C=C(\C)CC/C=C(\C)CCC=C(C)C)c1cccc(C(=O)O)c1 [Compound 23]
125,111,–,–,–,–,COc1ccc(C(=O)/N=C(\N)NCCCO)cc1N(C/C=C(\C)CCC=C(C)C)C/C=C(\C)CCC=C(C)C [Compound 45]
61.8,25.4,60 ± 17,4 ± 6,–,–,COCOc1ccc(C(=O)OC)cc1NC/C=C(\C)CC/C=C(\C)CCC=C(C)C [Compound 14]
34.7,19.1,100,100,–,–,"COC(=O)c1ccc(OC)c(NCC=C(C)CCC=C(C)CCC=C(C)CCC=C(C)C)c1 [Compound 34, 4-Methoxy-3-(3,7,11,15-tetramethyl-hexadeca-2,6,10,14-tetraenylamino)-benzoic acid methyl ester]"
105,97.9,91 ± 9,41 ± 14,–,–,"COC(=O)c1ccc(OC)c(N(CC=C(C)CCC=C(C)CCC=C(C)CCC=C(C)C)CC=C(C)CCC=C(C)CCC=C(C)CCC=C(C)C)c1 [Compound 35, 3-[Bis-(3,7,11,15-tetramethyl-hexadeca-2,6,10,14-tetraenyl)-amino]-4-methoxy-benzoic acid methyl ester]"
79.7,80.1,45 ± 12,7 ± 7,–,–,"COC(=O)c1ccc(OC)c(NCC=C(C)CCC=C(C)COC2CCCCO2)c1 (stereo not shown) [Compound 36, 3-[3,7-Dimethyl-8-(tetrahydro-pyran-2-yloxy)-octa-2,6-dienylamino]-4-methoxy-benzoic acid methyl ester]"
55.1,13.2,100,100,–,–,"COc1ccc(C(=O)N2CCN(CCO)CC2)cc1N(CC=C(C)CCC=C(C)C)CC=C(C)CCC=C(C)C [Compound 39, {3-[Bis-(3,7-dimethyl-octa-2,6-dienyl)-amino]-4-methoxy-phenyl}-[4-(2-hydroxy-ethyl)-piperazin-1-yl]-methanone]"
90.7,59.6,88.5 ± 0.7,51 ± 16,–,–,COc1ccccc1N(C/C=C(\C)CCC=C(C)C)C/C=C(\C)CCC=C(C)C [Compound 27]
55.5,35.5,75 ± 5,70 ± 19,–,–,"CC(C)=CCCC(C)=CCNc1cccc(C(=O)O)c1 [Compound 13, 3-(3,7-Dimethyl-octa-2,6-dienylamino)-benzoic acid]"
30.6,15.3,60 ± 14,46 ± 28,–,–,"COc1ccc(C(=O)O)cc1N(CC=C(C)CCC=C(C)CCC=C(C)C)CC=C(C)CCC=C(C)CCC=C(C)C [Compound 19, 3-[Bis-(3,7,11-trimethyl-dodeca-2,6,10-trienyl)-amino]-4-methoxy-benzoic acid]"
34.7,19.1,–,–,–,–,COc1ccc(C(=O)/N=C(\N)NCCO)cc1N(C/C=C(\C)CCC=C(C)C)C/C=C(\C)CCC=C(C)C [Compound 47]
106,110,–,–,–,–,COc1ccc(C(=O)NCCCO)cc1N(C/C=C(\C)CCC=C(C)C)C/C=C(\C)CCC=C(C)C [Compound 42]

Compound,remaining activity at 25 µM ([1]; compound at 25 μM) [%],remaining activity at 50 µM ([1]; compound at 50 μM) [%],% of BACE activity ([2]; compound at 1 μM) [%],% of BACE activity ([2]; compound at 10 μM) [%],% GSK-3 beta activity ([1]; compound at 25 μM) [%],% GSK-3 beta activity ([1]; compound at 50 μM) [%]
"COC(=O)c1ccc(OC)c(N(CC=C(C)CCC=C(C)CCC=C(C)C)C(=O)OC(C)(C)C)c1 [Compound 33, 3-[tert-Butoxycarbonyl-(3,7,11-trimethyl-dodeca-2,6,10-trienyl)-amino]-4-methoxy-benzoic acid methyl ester]",27.9,19.8,92 ± 4,61 ± 17,–,–
"CCC(C)Oc1ccc(C(=O)OC)cc1NCC=C(C)CCC=C(C)CCC=C(C)C (stereo not shown) [Compound 40, 4-sec-Butoxy-3-(3,7,11-trimethyl-dodeca-2,6,10-trienylamino)-benzoic acid methyl ester]",111,99.4,100,100,–,–

# Reference: patent US20100041665A1, “N-PHENYL-PRENYLAMINE DERIVATIVES FOR THE TREATMENT OF COGNITIVE, NEURODEGENERATIVE OR NEURONAL DISEASES OR DISORDERS” (NOSCIRA, S.A., priority 2006, published 2010)
